The values that follow come from publication PMC3191323 (Journal of medicinal chemistry, 2011).

In one series the test system is P. falciparum strain 3D7. Put plainly: Malaria SYBR Green I-based fluorescence assay. The class given is cell-based, Plasmodium falciparum.
For another series, the system named is P. falciparum strain W2. Put plainly: Malaria SYBR Green I-based fluorescence assay. The class given is cell-based. The settings on record: Plasmodium falciparum, W2, 96 h, read-out: Antimalarial activity against P. falciparum IC50, W2.
In a further series the test system is P. falciparum (3D7). Briefly: Viable cell count. The settings on record: 2xIC50, 72 h. The class given is cell-based, Plasmodium falciparum.
Another series has as its system P. falciparum. Briefly: Flow cytometric analysis of parasite DNA replication and nuclear division. The series is classed as cell-based, Plasmodium falciparum. Conditions: 2xIC50, flow cytometry. In general terms: A flow cytometer gives signals particle by particle.
Series [1] has as its system HepG2 human hepatocellular liver carcinoma cells. Briefly: Cytotoxicity in mammalian cells, lactate dehydrogenase assay. Conditions: HepG2 vs P. falciparum. The series is classed as cell-based.

Broadly, the IC50 is the concentration at which inhibition is half-maximal. `CCN(CC)CCCC(C)Nc1ccnc2cc(Cl)ccc12` (centres unmarked) [CQ, chloroquine, reference compound]: the IC50 is 9 ± 0.04 nM in the series with P. falciparum strain 3D7 (Plasmodium falciparum, 3D7, 96 h, read-out: Antimalarial activity against P. falciparum IC50, 3D7) and 70 ± 1 nM with P. falciparum strain W2.

`Cl.Cl.O=C(NCCCNCCCCCCCNCCCNC(=O)NCCC(c1ccccc1)c1ccccc1)NCCC(c1ccccc1)c1ccccc1` [Compound 9]: the “Cytotoxic response: decrease in viable cell numbers (% parasitemia)” value (from here on “Cytotoxic response: decrease … (% parasitemia)”) in the series on P. falciparum (3D7) is on record as “significant cytotoxic response”.

With `Cl.Cl.S=C(NCCCNCCCCCCCNCCCNC(=S)NCCC(c1ccccc1)c1ccccc1)NCCC(c1ccccc1)c1ccccc1` [Compound 13], the “Cytotoxic response: decrease … (% parasitemia)” value in the series with P. falciparum (3D7) is recorded as “significant cytotoxic response”.

Take `Cl.Cl.S=C(NCCCNCCCCNCCCNC(=S)NCC(c1ccccc1)c1ccccc1)NCC(c1ccccc1)c1ccccc1` [Compound 15]: the “Cytotoxic response: decrease … (% parasitemia)” value in the series on P. falciparum (3D7) is reported as “significant cytotoxic response”.

Consider `Cl.Cl.S=C(NCCCNCCCCCCCNCCCNC(=S)NCC(c1ccccc1)c1ccccc1)NCC(c1ccccc1)c1ccccc1` [Compound 16], for which the “Effect on DNA replication and nuclear division” value (shortened to “Effect”) with P. falciparum was “greatest inhibitory affect on DNA replication and nuclear division”. Moreover, in the series on P. falciparum (3D7), the “Cytotoxic response: decrease … (% parasitemia)” value is listed as “significant cytotoxic response”.

For `Cl.Cl.S=C(NCCCNCCCCNCCCNC(=S)NCc1ccccc1)NCc1ccccc1` [Compound 20], in the series on P. falciparum, the “Effect” value is on record as “not able to prevent DNA replication”. In addition, in the series on P. falciparum (3D7), the “Cytotoxic response: decrease … (% parasitemia)” value is on record as “not able to decrease viable cell numbers”.

With `Cl.Cl.S=C(NCCCNCCCCCCNCCCNC(=S)NC(c1ccccc1)c1ccccc1)NC(c1ccccc1)c1ccccc1` [Compound 25, 1,14-Bis-{3-[1-(1′,1′-diphenylmethyl)thioureado]}-4,11-diazatetradecane Hydrochloride], in the series on P. falciparum (3D7), the “Cytotoxic response: decrease … (% parasitemia)” value is recorded as “significant cytotoxic response”.

Consider `Cl.Cl.S=C(NCCCNCCCCCCNCCCNC(=S)NCc1ccccc1)NCc1ccccc1` [Compound 29, 1,14-Bis-{3-[1-(benzyl)thioureado]}-4,11-diazatetradecane Hydrochloride], for which, in series [1], the “Selectivity towards the parasite compared to HepG2” value (shortened to “Selectivity towards the parasite”) is listed as over 500 fold. The “Cytotoxic response: decrease … (% parasitemia)” value in the series with P. falciparum (3D7) is reported as “significant cytotoxic response”.

For `Cl.Cl.O=C(NCCCNCCCCCCNCCCNC(=O)Nc1ccccc1)Nc1ccccc1` [Compound 30, 1,14-Bis-{3-[1-(phenyl)ureado]}-4,11-diazatetradecane Hydrochloride], the “Cytotoxic response: decrease … (% parasitemia)” value in the series with P. falciparum (3D7) is on record as “significant cytotoxic response”.

`CCNC(=O)NCCCNCCCCCCNCCCNC(=O)NCC.Cl.Cl` [Compound 34, 1,14-Bis-{3-[1-(ethyl)ureado]}-4,11-diazatetradecane Hydrochloride]: the “Antimalarial activity against P. falciparum IC50, 3D7 (values in μM)” value with P. falciparum strain 3D7 (drug sensitive strain 3D7, footnote: IC50 values in μM) was “not active in the μM range”.

In the case of `Cl.Cl.O=C(NCCCNCCCCCCCNCCCNC(=O)NC(c1ccccc1)c1ccccc1)NC(c1ccccc1)c1ccccc1` [Compound 38, 1,15-Bis-{3-[1-(1′,1′-diphenylmethyl)ureado]}-4,12-diazapentadecane Hydrochloride], the “Selectivity towards the parasite” value in series [1] is on record as over 500 fold. Also, in the series with P. falciparum, the “Effect” value was “greatest inhibitory affect on DNA replication and nuclear division”. For the same molecule, the “Cytotoxic response: decrease … (% parasitemia)” value in the series with P. falciparum (3D7) was “significant cytotoxic response”.

With `Cl.Cl.O=C(NCCCNCCCCCCCNCCCNC(=O)NCC(c1ccccc1)c1ccccc1)NCC(c1ccccc1)c1ccccc1` [Compound 39, 1,15-Bis-{3-[1-(2′,2′-diphenylethyl)ureado]}-4,12-diazapentadecane Hydrochloride], the “Selectivity towards the parasite” value in series [1] was over 500 fold. The “Effect” value in the series on P. falciparum is “greatest inhibitory affect on DNA replication and nuclear division”. Besides, the “Cytotoxic response: decrease … (% parasitemia)” value in the series on P. falciparum (3D7) is on record as “significant cytotoxic response”.
